According to PubChem BioAssay (NCI):
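1) Cells in 96-well plates. 2) Compound, 48 h, 5 concentrations. 3) Linear interpolation between surrounding doses. 4) Unreached endpoint = highest concentration. The concentration for 50% growth inhibition is given as GI50. TGI: concentration producing complete growth inhibition.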

Legend:
Assay in all cases: NCI anticancer screen, dose series, 48 h
OVCAR-4 ovarian = tested on: OVCAR-4 ovarian
UACC-62 melanoma = tested on: UACC-62 melanoma
UACC-257 melanoma = tested on: UACC-257 melanoma
SK-MEL-28 melanoma = tested on: SK-MEL-28 melanoma
U251 CNS = tested on: U251 CNS
M14 melanoma = tested on: M14 melanoma
CCRF-CEM leukemia = tested on: CCRF-CEM leukemia
CAKI-1 renal = tested on: CAKI-1 renal
NCI/ADR-RES ovarian = tested on: NCI/ADR-RES ovarian
ACHN renal = tested on: ACHN renal
COLO 205 colon = tested on: COLO 205 colon
HL-60(TB) leukemia = tested on: HL-60(TB) leukemia
SF-539 CNS = tested on: SF-539 CNS
SR leukemia = tested on: SR leukemia
SF-295 CNS = tested on: SF-295 CNS
DU-145 prostate = tested on: DU-145 prostate
OVCAR-8 ovarian = tested on: OVCAR-8 ovarian
T-47D breast = tested on: T-47D breast
MCF7 breast = tested on: MCF7 breast
NCI-H226 lung = tested on: NCI-H226 lung
786-0 renal = tested on: 786-0 renal
K-562 leukemia = tested on: K-562 leukemia
OVCAR-3 ovarian = tested on: OVCAR-3 ovarian
HCT-116 colon = tested on: HCT-116 colon
SW-620 colon = tested on: SW-620 colon
BT-549 breast = tested on: BT-549 breast
A549 NSCLC = tested on: A549 NSCLC
HS 578T breast = tested on: HS 578T breast
UO-31 renal = tested on: UO-31 renal
RXF 393 renal = tested on: RXF 393 renal
HOP-62 NSCLC = tested on: HOP-62 NSCLC
NCI-H23 lung = tested on: NCI-H23 lung
NCI-H460 lung = tested on: NCI-H460 lung
MDA-MB-231 breast = tested on: MDA-MB-231 breast
SNB-75 CNS = tested on: SNB-75 CNS
A498 renal = tested on: A498 renal
TK-10 renal = tested on: TK-10 renal
SN12C renal = tested on: SN12C renal
MALME-3M melanoma = tested on: MALME-3M melanoma
MOLT-4 leukemia = tested on: MOLT-4 leukemia
SK-OV-3 ovarian = tested on: SK-OV-3 ovarian
NCI-H522 lung = tested on: NCI-H522 lung
PC-3 prostate = tested on: PC-3 prostate
KM12 colon = tested on: KM12 colon
HOP-92 NSCLC = tested on: HOP-92 NSCLC
SK-MEL-2 melanoma = tested on: SK-MEL-2 melanoma
SK-MEL-5 melanoma = tested on: SK-MEL-5 melanoma
MDA-MB-435 = tested on: MDA-MB-435
HCC-2998 colon = tested on: HCC-2998 colon
RPMI-8226 leukemia = tested on: RPMI-8226 leukemia
EKVX NSCLC = tested on: EKVX NSCLC
HCT-15 colon = tested on: HCT-15 colon
SNB-19 CNS = tested on: SNB-19 CNS
LOX IMVI melanoma = tested on: LOX IMVI melanoma
SF-268 CNS = tested on: SF-268 CNS
OVCAR-5 ovarian = tested on: OVCAR-5 ovarian
HT29 colon = tested on: HT29 colon
IGROV1 ovarian = tested on: IGROV1 ovarian

## CC(C)(C)[Si](C)(C)OC1[C@@H](O[Si](C)(C)C(C)(C)C)[C@@H](CNC(=O)NC(=O)CCl)O[C@H]1n1cnc2c(NC(=O)Nc3ccccc3)ncnc21 (stereo partly specified)
OVCAR-4 ovarian
  GI50: 0.7 µM
  TGI: 1.57 µM
UACC-62 melanoma
  GI50: 0.793 µM
  TGI: 1.6 µM
UACC-257 melanoma
  GI50: 0.884 µM
  TGI: 1.89 µM
SK-MEL-28 melanoma
  GI50: 0.916 µM
  TGI: 1.69 µM
U251 CNS
  GI50: 0.51 µM
  TGI: 1.21 µM
M14 melanoma
  GI50: 0.978 µM
  TGI: 1.98 µM
CCRF-CEM leukemia
  GI50: 0.0441 µM
  TGI: 0.125 µM
CAKI-1 renal
  GI50: 0.989 µM
  TGI: 2.82 µM
NCI/ADR-RES ovarian
  GI50: 1.24 µM
  TGI: 8.03 µM
ACHN renal
  GI50: 0.782 µM
  TGI: 1.54 µM
COLO 205 colon
  GI50: 1.41 µM
  TGI: 3.5 µM
HL-60(TB) leukemia
  GI50: 0.166 µM
  TGI: 0.488 µM
SF-539 CNS
  GI50: 0.837 µM
  TGI: 1.58 µM
SR leukemia
  GI50: 0.117 µM
  TGI: 0.446 µM
SF-295 CNS
  GI50: 0.235 µM
  TGI: 0.922 µM
DU-145 prostate
  GI50: 1.73 µM
  TGI: 5.32 µM
OVCAR-8 ovarian
  GI50: 0.307 µM
  TGI: 1.42 µM
T-47D breast
  GI50: 1.01 µM
  TGI: 2.17 µM
MCF7 breast
  GI50: 0.76 µM
  TGI: 1.62 µM
NCI-H226 lung
  GI50: 0.651 µM
  TGI: 1.3 µM
786-0 renal
  GI50: 0.31 µM
  TGI: 0.633 µM
K-562 leukemia
  GI50: 1.09 µM
  TGI: 3.38 µM
OVCAR-3 ovarian
  GI50: 0.446 µM
  TGI: 1.49 µM
HCT-116 colon
  GI50: 0.719 µM
  TGI: 1.51 µM
SW-620 colon
  GI50: 0.441 µM
  TGI: 1.36 µM
BT-549 breast
  GI50: 0.962 µM
  TGI: 1.79 µM
A549 NSCLC
  GI50: 1.19 µM
  TGI: 3.51 µM
HS 578T breast
  GI50: 1.3 µM
  TGI: 12.5 µM
UO-31 renal
  GI50: 0.0763 µM
  TGI: 0.2 µM
RXF 393 renal
  GI50: 0.614 µM
  TGI: 1.27 µM
HOP-62 NSCLC
  GI50: 0.348 µM
  TGI: 0.953 µM
NCI-H23 lung
  GI50: 0.756 µM
  TGI: 1.84 µM
NCI-H460 lung
  GI50: 0.859 µM
  TGI: 1.74 µM
MDA-MB-231 breast
  GI50: 0.507 µM
  TGI: 1.3 µM
SNB-75 CNS
  GI50: 0.536 µM
  TGI: 1.28 µM
A498 renal
  GI50: 0.902 µM
  TGI: 2.11 µM
TK-10 renal
  GI50: 0.978 µM
  TGI: 1.88 µM
SN12C renal
  GI50: 0.786 µM
  TGI: 1.69 µM
MALME-3M melanoma
  GI50: 0.796 µM
  TGI: 1.62 µM
MOLT-4 leukemia
  GI50: 0.339 µM
  TGI: 0.913 µM
SK-OV-3 ovarian
  GI50: 0.799 µM
  TGI: 1.5 µM
NCI-H522 lung
  GI50: 0.096 µM
  TGI: 0.196 µM
PC-3 prostate
  GI50: 0.381 µM
  TGI: 1.19 µM
KM12 colon
  GI50: 1.04 µM
  TGI: 3.64 µM
HOP-92 NSCLC
  GI50: 0.211 µM
  TGI: 0.9 µM
SK-MEL-2 melanoma
  GI50: 1.13 µM
  TGI: 2.01 µM
SK-MEL-5 melanoma
  GI50: 0.833 µM
  TGI: 1.55 µM
MDA-MB-435
  GI50: 0.835 µM
  TGI: 1.75 µM
HCC-2998 colon
  GI50: 0.967 µM
  TGI: 2.06 µM
RPMI-8226 leukemia
  GI50: 0.167 µM
  TGI: 0.682 µM
EKVX NSCLC
  GI50: 1.01 µM
  TGI: 2.98 µM
HCT-15 colon
  GI50: 1.77 µM
  TGI: 6.56 µM
SNB-19 CNS
  GI50: 1.11 µM
  TGI: 3.96 µM
LOX IMVI melanoma
  GI50: 0.0829 µM
  TGI: 0.18 µM
SF-268 CNS
  GI50: 0.665 µM
  TGI: 1.44 µM
OVCAR-5 ovarian
  GI50: 0.911 µM
  TGI: 2.08 µM
HT29 colon
  GI50: 0.33 µM
  TGI: 1.05 µM
IGROV1 ovarian
  GI50: 0.111 µM
  TGI: 0.233 µM
